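Tested at 5 concentrations; 48 h exposure; 96-well plates; endpoints linearly interpolated, else capped at highest concentration. Here, GI50 denotes the concentration required for 50% inhibition of growth. TGI marks complete inhibition of growth.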
Assays:
Experiment in all cases: inhibition of tumour cell growth, NCI panel, 48 h
MDA-MB-435 = system: MDA-MB-435
OVCAR-5 ovarian = system: OVCAR-5 ovarian
OVCAR-8 ovarian = system: OVCAR-8 ovarian
SW-620 colon = system: SW-620 colon
HOP-62 NSCLC = system: HOP-62 NSCLC
SF-295 CNS = system: SF-295 CNS
UACC-62 melanoma = system: UACC-62 melanoma
NCI-H23 lung = system: NCI-H23 lung
SF-268 CNS = system: SF-268 CNS
OVCAR-4 ovarian = system: OVCAR-4 ovarian

| SMILES | GI50 (MDA-MB-435) | TGI (MDA-MB-435) | GI50 (OVCAR-5 ovarian) | TGI (OVCAR-5 ovarian) | GI50 (OVCAR-8 ovarian) | TGI (OVCAR-8 ovarian) | GI50 (SW-620 colon) | TGI (SW-620 colon) | GI50 (HOP-62 NSCLC) | TGI (HOP-62 NSCLC) | GI50 (SF-295 CNS) | TGI (SF-295 CNS) | GI50 (UACC-62 melanoma) | TGI (UACC-62 melanoma) | GI50 (NCI-H23 lung) | TGI (NCI-H23 lung) | GI50 (SF-268 CNS) | TGI (SF-268 CNS) | GI50 (OVCAR-4 ovarian) | TGI (OVCAR-4 ovarian) |
| --- | --- | --- | --- | --- | --- | --- | --- | --- | --- | --- | --- | --- | --- | --- | --- | --- | --- | --- | --- | --- |
| CS(=O)(=O)CCNCc1ccc(-c2ccc3ncnc(Nc4ccc(OCc5ccccc5)c(C(F)(F)F)c4)c3c2)o1 | 4800 nM | 10.5 µM | 4.87 µM | 12.5 µM | 8390 nM | > 25 µM | 4620 nM | 8.66 µM | 6160 nM | 15.8 µM | 5100 nM | 10.6 µM | 4760 nM | 8.66 µM | 6370 nM | > 19.4 µM | 7990 nM | > 25 µM | 10300 nM | > 25 µM |
| O=C1C2CC3C(CC2C(=O)[N]1[Sn]([c]1ccccc1)([c]1ccccc1)[c]1ccccc1)C1(Cl)C(Cl)=C(Cl)C3(Cl)C1(Cl)Cl (centres undefined) | 87.2 nM | 0.257 µM | 0.151 µM | 0.317 µM | 155 nM | 0.375 µM | 63.6 nM | 0.216 µM | 192 nM | 0.427 µM | 212 nM | 0.455 µM | 118 nM | 0.288 µM | 150 nM | 0.388 µM | 111 nM | 0.286 µM | 78.1 nM | 0.289 µM |
| CC1=CC2=C(OCO1)C(=O)c1ccccc1C2=O |  | 2.77 µM |  | 10.8 µM |  | 32.3 µM |  | 21.6 µM |  | 15.1 µM |  | 8.61 µM |  | 9.89 µM |  | 8.06 µM |  | 26.1 µM |  | 8.5 µM |
| Nc1ncc(-c2cnn(C3CCNCC3)c2)cc1-c1nc2ccccc2o1 | 1210 nM | 2.62 µM | 3.28 µM | 11.5 µM | 2590 nM | 8.9 µM | 1090 nM | 2.38 µM | 915 nM | 5.19 µM | 1540 nM | 3.43 µM | 1600 nM | 3.07 µM | 1350 nM | 12.7 µM | 1740 nM | 4.58 µM | 1300 nM | 3.53 µM |
| CCOC(=O)[C@H](CSSc1ncnc2cc[nH]c12)NC(=O)[C@@H](C)c1ccc2cc(OC)ccc2c1 | 355 nM | > 100 µM | 0.929 µM | > 100 µM | 1820 nM | > 100 µM | 1640 nM | > 100 µM | 408 nM | > 100 µM | 438 nM | > 100 µM | 425 nM | > 100 µM | 2180 nM | > 100 µM | 2740 nM | > 100 µM | 2030 nM | > 100 µM |
| COc1ccc(-c2cc(-c3ccc(Nc4nc(Nc5ccc(Cl)cc5)nc(Nc5ccc(Cl)cc5)n4)cc3)no2)cc1 | 10300 nM | 37 µM | 19.1 µM | 73.5 µM | 12600 nM | 55.3 µM | 11300 nM | 25.6 µM | 20500 nM | 60.5 µM | 11400 nM | 39.5 µM | 23100 nM | 57.6 µM | 11700 nM | 28.1 µM | 9300 nM | 38.2 µM | 14700 nM | > 100 µM |
| Oc1c(Br)cc(Br)cc1CN(Cc1cc(Br)cc(Br)c1O)C1CCCCC1 |  | > 100 µM |  | > 100 µM |  | > 100 µM |  | > 100 µM |  | 97.5 µM |  | 72.7 µM |  | > 100 µM |  | 70.4 µM |  | 71.9 µM |  | > 100 µM |
| COc1cc2c(c(OC)c1OC)-c1ccc(OC)c(=O)cc1[C@@H](NC(=O)CCl)CC2 | < 10 nM | < 0.01 µM |  | 30.5 µM | < 10 nM | > 33.6 µM | < 10 nM | 12 µM | < 10 nM | 10.2 µM | < 10 nM | 0.0743 µM | < 10 nM | 20.1 µM | < 10 nM | > 33 µM | < 10 nM | 3.53 µM | < 10 nM | > 100 µM |
| O=C1C(=O)c2cc([N+](=O)[O-])ccc2-c2ccccc21 | 402 nM | 1.53 µM | 1.82 µM | 3.36 µM | 1710 nM | 3.6 µM | 1540 nM | 2.98 µM |  |  | 1860 nM | 3.48 µM | 1700 nM | 3.13 µM | 1650 nM | 3.29 µM | 1290 nM | 2.62 µM | 1250 nM | 2.66 µM |
| COc1ccc(C(=S)c2cc(OC)c(OC)c(OC)c2)cc1OC(=O)CCl | < 10 nM | < 0.0108 µM | 3.32 µM | > 100 µM | 35.5 nM | > 100 µM | < 14.6 nM | > 100 µM | 61.4 nM | > 100 µM | 35.6 nM | > 100 µM | 39.1 nM | > 100 µM | 51 nM | > 100 µM | 54 nM | > 100 µM | 73 nM | > 100 µM |
| CCCCCCCCCCCCCCCCC1=CC(=O)C=C(OC)C1=O |  | > 100 µM |  | > 100 µM |  | > 100 µM |  | > 100 µM |  | > 100 µM |  | > 100 µM |  | > 100 µM |  | > 100 µM |  | > 100 µM |  | > 100 µM |
| O=c1oc2ccc(Cl)cc2c(=O)n1-c1ccc(Cl)cc1F | 572 nM | 4.86 µM | 3.83 µM | > 95 µM | 721 nM | > 21.7 µM | 652 nM | 9.02 µM | 622 nM | 2.86 µM | 856 nM | 2.43 µM | 247 nM | 0.964 µM | 326 nM | 1.79 µM | 419 nM | 7.07 µM | 377 nM | 78.9 µM |
| O=c1[nH]cnc2c(C3OC(CO)C(O)C3O)[nH]nc12 (centres undefined) |  | > 100 µM |  | > 100 µM |  | 70.3 µM |  | > 100 µM |  | > 100 µM |  | > 100 µM |  | > 100 µM |  | > 100 µM |  |  |  | 48.6 µM |
| O=S(=O)(NCCNc1cc(-c2cn(-c3ccccc3)nc2-c2cccc(O)c2)ccn1)c1ccc(C(F)(F)F)cc1 | 2400 nM | 7.63 µM | 2.53 µM | 13.7 µM | 4910 nM | 26.1 µM | 3550 nM | 12.9 µM | 2560 nM | 9.14 µM |  |  | 1780 nM | 3.98 µM | 2970 nM | 15.4 µM | 3420 nM | 17.3 µM | 2850 nM | 16.9 µM |
